Usually Ki stands for a dissociation constant, usually derived from enzyme kinetics or from competition with a known ligand. Low readings indicate higher affinity, high ones lower affinity.

Counter-ions that a name gives are not always drawn.

The target of assay [1] is T1, Amine oxidase [flavin-containing] B (Homo sapiens, UniProt P27338).
T1 sequence (P27338 whole entry): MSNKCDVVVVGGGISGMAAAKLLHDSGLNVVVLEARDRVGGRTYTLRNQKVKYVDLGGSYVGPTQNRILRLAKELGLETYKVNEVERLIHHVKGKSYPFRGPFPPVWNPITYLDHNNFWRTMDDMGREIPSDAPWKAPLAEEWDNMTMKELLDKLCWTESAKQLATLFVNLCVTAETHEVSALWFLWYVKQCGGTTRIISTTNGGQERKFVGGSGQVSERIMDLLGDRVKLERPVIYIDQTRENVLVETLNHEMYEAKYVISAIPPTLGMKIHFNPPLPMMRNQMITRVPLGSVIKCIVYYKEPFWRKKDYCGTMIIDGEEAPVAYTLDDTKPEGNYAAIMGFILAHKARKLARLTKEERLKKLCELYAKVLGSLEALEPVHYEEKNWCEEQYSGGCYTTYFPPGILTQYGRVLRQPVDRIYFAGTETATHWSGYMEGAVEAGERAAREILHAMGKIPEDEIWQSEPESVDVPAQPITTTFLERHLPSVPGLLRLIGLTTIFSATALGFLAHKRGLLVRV
The assay can be described thus: Compounds were tested for inhibition against human liver Monoamine oxidase B (competitive inhibition was observed).

In assay [2] the target is T2, Amine oxidase [flavin-containing] A (Homo sapiens, UniProt P21397).
T2 sequence (P21397 whole entry): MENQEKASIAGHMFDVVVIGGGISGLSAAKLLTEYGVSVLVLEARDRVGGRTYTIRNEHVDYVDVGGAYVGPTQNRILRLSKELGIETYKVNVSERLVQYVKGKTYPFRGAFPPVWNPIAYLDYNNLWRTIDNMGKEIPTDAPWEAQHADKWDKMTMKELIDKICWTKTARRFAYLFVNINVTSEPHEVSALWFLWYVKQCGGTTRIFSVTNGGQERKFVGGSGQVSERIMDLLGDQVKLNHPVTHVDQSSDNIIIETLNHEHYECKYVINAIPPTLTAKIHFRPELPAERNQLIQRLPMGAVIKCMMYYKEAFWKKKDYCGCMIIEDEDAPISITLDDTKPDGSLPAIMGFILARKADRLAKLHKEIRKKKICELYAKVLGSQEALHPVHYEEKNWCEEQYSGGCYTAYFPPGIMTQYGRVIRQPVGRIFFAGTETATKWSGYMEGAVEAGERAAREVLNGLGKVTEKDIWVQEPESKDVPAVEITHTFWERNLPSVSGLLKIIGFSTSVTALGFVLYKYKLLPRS

Assay [3] concerns the target T2, Amine oxidase [flavin-containing] A. The assay can be described thus: Compounds were tested for inhibition against human placental Monoamine oxidase A (mixed inhibition was observed).
Assay [4] has the same target. Kind of assay: Compound was tested for inhibition against human placental Monoamine oxidase A (competitive inhibition was observed).
Assay [5] deals with T1, Amine oxidase [flavin-containing] B. The assay can be described thus: Compounds were tested for inhibition against human liver Monoamine oxidase B (mixed inhibition was observed).

As to `C[N+]1=Cc2ccccc2CC1`, the inhibitory constant (Ki) was 76 µM in assay [1] and 130 µM in assay [2].

Turning to `COc1ccc2c(c1)CC[N+](C)=C2`, the inhibitory constant (Ki) worked out at 15 µM in assay [1] and 4 µM in assay [2].

In assay [2], `COc1cc2c(cc1OC)C(C)=NCC2` came in with a Ki of 4 µM.

In assay [2], `COc1cc2c(C)nccc2cc1O` [listing 1 of 2 here] displayed a Ki of 150 µM.

With `COc1cc2c(C)nccc2cc1O` [listing 2 of 2 here], the inhibition constant Ki in assay [2] was 130 µM.

`COc1cc2c(cc1O)C(C)=NCC2` gave a Ki in assay [2] of 13 µM.

In assay [2], `COc1cc2c(cc1OC)CC[N+](C)=C2` returned a Ki of 6 µM.

The compound `COc1cc2c(c(OC)c1OC)C(C)=NCC2` gave a Ki in assay [2] of 2 µM.

For the compound `COc1cc2ccncc2c(OC)c1OC`, the Ki in assay [2] amounted to 41 µM.

Consider `COc1cc2c(cc1OC)[C@@H](C)NCC2`, for which the Ki in assay [2] is 6 µM.

As to `COc1c(OC)c(OC)c2c(C)nccc2c1OC`, the inhibition constant Ki in assay [2] was determined as 17 µM.

Take `COc1cc2c(cc1OC)[C@@H](C)N(C)CC2`: the inhibition constant Ki in assay [2] stood at 2 µM.

Consider `COc1cc2c(cc1O)CCN[C@@H]2C`, for which affinity in assay [2] was put at a Ki of 77 µM.

As for `CN1CCc2cc(O)c(O)cc2C1`, in assay [2], the Ki was determined as 1300 µM.

In assay [2], `C[C@H]1NCCc2cc(O)c(O)cc21` returned a Ki of 31 µM.

The compound `COc1cc2c(cc1O)CCN=C2C` had an inhibitory constant (Ki) in assay [2] of 80 µM.

In assay [2], `COc1c2c(c(OC)c(OC)c1OC)C(C)=NCC2` had a Ki of 10 µM.

`CN1CCc2ccccc2C1` displayed a Ki in assay [1] of 1 µM.

As to `Cc1nccc2cc(O)c(O)cc12`, the inhibition constant Ki in assay [3] amounted to 130 µM.

As to `COc1cc2c(cc1OC)CN(C)CC2`, the inhibition constant Ki in assay [1] was 29 µM; in assay [4], 27 µM.

With `COc1cc2c(cc1OC)[C@H](C)NCC2`, the inhibitory constant (Ki) in assay [2] came out at 186 µM.

In the case of `CC1c2cc(O)c(O)cc2CCN1C` (racemic), in assay [2], the affinity, expressed as Ki, was 36 µM.

For the compound `COc1cc2c(c(OC)c1OC)C(C)NCC2` (racemic), the inhibition constant (Ki) in assay [2] was 170 µM.

`COc1cc2c(c(OC)c1OC)C(C)N(C)CC2` (racemic) came in with an inhibitory constant (Ki) in assay [2] of 160 µM.

In assay [2], `COc1c2c(c(OC)c(OC)c1OC)C(C)NCC2` (racemic) displayed a Ki of 1000 µM.

In the case of `COc1cc2c(cc1O)CCN(C)[C@H]2C` (racemic), the Ki in assay [1] was 2300 µM; in assay [3] it was 70 µM.

In assay [2], `COc1cc2c(cc1O)C(C)NCC2` (racemic) displayed an inhibitory constant (Ki) of 34 µM.

In the case of `COc1cc2c(cc1OC)[C@H](C)N(C)CC2` [CARNEGINE HYDROCHLORIDE], the Ki came out at 102 µM in assay [2] and 1600 µM in assay [5].

As for `COc1c2c(c(OC)c(OC)c1OC)CNCC2` [NORWEBERINE], the Ki worked out at 580 µM in assay [5] and 700 µM in assay [3].

In assay [2], `COc1cc2c(cc1O)CCN[C@H]2C` [SALSOLINE HYDROCHLORIDE] showed an inhibition constant (Ki) of 160 µM.

As for `C[C@@H]1NCCc2cc(O)c(O)cc21` [SALSOLINOL HYDROBROMIDE], affinity in assay [2] was put at a Ki of 284 µM.

Regarding `COc1c2c(c(OC)c(OC)c1OC)CN(C)CC2` [WEBERINE], the inhibitory constant (Ki) in assay [1] came out at 1900 µM; in assay [2] it was 260 µM.

Values taken from ChEMBL document CHEMBL1124928, “Inhibition of monoamine oxidases A and B by simple isoquinoline alkaloids: racemic and optically active 1,2,3,4-tetrahydro-, 3,4-dihydro-, and fully aromatic isoquinolines” (J Med Chem, 1990).
